Consider six compounds from DBAASP.

Converted amounts (≈) assume the structure as drawn. “And” between values parts separate entries of the source, which are not always exact repeats. Identical values can stand only once.

Common to all, as to assay: ≥ marks a high value that may be exact or a test limit, other limits are often not marked, values filed in µg/mL are converted to µM
Assay [1] relates to Bacillus subtilis ATCC 9466.
Assay [2] deals with Burkholderia cepacia 6/06.
Assay [3] relates to Candida albicans.
For assay [4], the system named is Escherichia coli HB101.
Assay [5] relates to Pseudomonas aeruginosa ATCC 15442.
The subject of assay [6] is Pseudomonas aeruginosa.
Assay [7] relates to Staphylococcus aureus ATCC 6538P.
In assay [8] the test system is Staphylococcus aureus Cowan 1.
The subject of assay [9] is Staphylococcus aureus.
Assay [10] has as its system Stenotrophomonas maltophilia FC.
Assay [11] deals with Acinetobacter baumannii ATCC 19606.
The subject of assay [12] is Escherichia coli ATCC 25922.
Assay [13] relates to Klebsiella pneumoniae ATCC 13883.
Assay [14] deals with Pseudomonas aeruginosa ATCC 27853.
The test system of assay [15] is Salmonella enterica subsp. enterica serovar Choleraesuis ATCC 10708.
Assay [16] has as its system Staphylococcus aureus ATCC 29213.
In assay [17] the test system is Staphylococcus aureus ATCC 33591.
Assay [18] relates to Staphylococcus aureus ATCC 43300.
Assay [19] concerns Staphylococcus epidermidis ATCC 12228.
Assay [20] relates to Bacillus subtilis CMCC 63501.
Assay [21] concerns Enterococcus faecalis ATCC 29212.
Assay [22] relates to Escherichia coli UB1005.
Assay [23] relates to Pseudomonas aeruginosa PAO1.
Assay [24] relates to Salmonella enterica subsp. enterica serovar Typhimurium ATCC 14028.
Assay [25] deals with Salmonella typhimurium ATCC 7731.
Assay [26] deals with Escherichia coli DH5alpha.
In assay [27] the test system is Escherichia coli.
In assay [28] the test system is Pseudomonas aeruginosa H188.
In assay [29] the test system is Aeromonas hydrophila ATCC 7966.
Assay [30] deals with Listeria monocytogenes ATCC 19115.
The test system of assay [31] is Staphylococcus aureus ATCC 6538.
Assay [32] relates to Vibrio alginolyticus ATCC 17749.
In assay [33] the test system is Vibrio anguillarum ATCC 19264.
Assay [34] deals with Vibrio parahaemolyticus ATCC 33847.
For assay [35], the system named is Mycobacterium tuberculosis H37Rv.
Assay [36] relates to Streptococcus pneumoniae ATCC 49619.

Broadly, the MIC is the least concentration at which growth counts as inhibited. A higher MIC goes with weaker potency. On to `CSCC[C@H](NC(=O)[C@@H](NC(=O)CNC(=O)[C@H](CC(C)C)NC(=O)[C@H](CCCCN)NC(=O)[C@H](CCCCN)NC(=O)[C@H](CC(C)C)NC(=O)[C@H](CCSC)NC(=O)[C@@H](NC(=O)[C@H](CCCCN)NC(=O)[C@H](Cc1cnc[nH]1)NC(=O)[C@H](CC(C)C)NC(=O)[C@H](C)N)[C@@H](C)O)[C@@H](C)O)C(=O)N[C@@H](C)C(=O)N[C@@H](CC(C)C)C(N)=O` [ALHKTMLKKLGTMAL], for which the MIC was at least 45 µM in [1]; at least 45 µM in assay [2]; over 45 µM in assay [3]; at least 44.9 µM in [4]; at least 45 µM in assay [5]; over 45 µM in [6]. The MIC in assay [7] is at least 45 µM; in assay [8] it was at least 44.9 µM; in assay [9], over 45 µM; in [10], at least 45 µM.
Take `CC[C@H](C)[C@H](NC(=O)[C@H](C)NC(=O)[C@H](CO)NC(=O)[C@@H]1CCCN1C(=O)[C@@H](NC(=O)[C@H](CC(C)C)NC(=O)[C@H](CO)NC(=O)[C@H](Cc1ccccc1)NC(=O)[C@H](CC(C)C)NC(=O)[C@@H](N)Cc1ccccc1)[C@@H](C)CC)C(=O)NCC(=O)NCC(=O)N[C@@H](CC(C)C)C(=O)N[C@H](C(=O)N[C@@H](CO)C(=O)N[C@@H](C)C(=O)N[C@@H](Cc1ccccc1)C(=O)N[C@@H](CCCCN)C(=O)O)[C@@H](C)CC` [FLFSLIPSAIGGLISAFK]: the MIC in [11] was 20 µM (≈ 37.6 µg/mL); in assay [12], 50 µM (≈ 94.1 µg/mL); in assay [13] it was at least 60 µM; in assay [14], 40 µM (≈ 75.3 µg/mL); in assay [15] it was at least 60 µM; in assay [16] it was 5 µM (≈ 9.41 µg/mL). For the same compound, the MIC in assay [17] worked out at 5 µM (≈ 9.41 µg/mL); in assay [18], 5 µM (≈ 9.41 µg/mL); in [19], 7.5 µM (≈ 14.1 µg/mL).
Take `CC[C@H](C)[C@H](NC(=O)[C@H](CCCCN)NC(=O)[C@H](CCCCN)NC(=O)[C@H](Cc1ccccc1)NC(=O)[C@H](CC(C)C)NC(=O)[C@H](CCCCN)NC(=O)[C@H](Cc1c[nH]c2ccccc12)NC(=O)[C@H](CCCCN)NC(=O)[C@@H](NC(=O)[C@H](CCCN=C(N)N)NC(=O)[C@@H](NC(=O)[C@H](CCCN=C(N)N)NC(=O)[C@@H](NC(=O)[C@H](CCCN=C(N)N)NC(=O)[C@@H](N)Cc1ccccc1)[C@@H](C)CC)C(C)C)C(C)C)C(N)=O` [FRIRVRVKWKLFKKI]: the minimal inhibitory concentration (MIC) in [20] was 1 µM (≈ 2.02 µg/mL); in assay [21], 1 µM (≈ 2.02 µg/mL); in assay [12], 2 µM and 4 µM; in assay [22] it was 2 µM (≈ 4.03 µg/mL); in [14], 2 µM (≈ 4.03 µg/mL); in [23], 2 µM (≈ 4.03 µg/mL). The MIC in assay [24] is 4 µM (≈ 8.07 µg/mL); in assay [25] it was 4 µM (≈ 8.07 µg/mL); in assay [16] it was 2 µM and 4 µM; in [19], 0.5 µM (≈ 1.01 µg/mL).
For the compound `CC[C@H](C)[C@H](NC(=O)[C@H](C)NC(=O)[C@H](CCCCN)NC(=O)[C@H](CC(C)C)NC(=O)[C@H](C)NC(=O)[C@@H](NC(=O)[C@H](Cc1cnc[nH]1)NC(=O)[C@H](CC(C)C)NC(=O)[C@H](C)NC(=O)[C@@H](NC(=O)[C@H](CCCCN)NC(=O)[C@H](CCCCN)NC(=O)[C@H](C)NC(=O)[C@H](CO)NC(=O)[C@H](CCCCN)NC(=O)[C@H](Cc1ccccc1)NC(=O)[C@@H](NC(=O)[C@H](CCCCN)NC(=O)[C@H](CC(C)C)NC(=O)[C@H](Cc1ccccc1)NC(=O)[C@H](CO)NC(=O)[C@H](CCCCN)NC(=O)[C@H](Cc1c[nH]c2ccccc12)NC(=O)[C@H](CCCCN)NC(C)=O)[C@@H](C)O)[C@@H](C)O)[C@@H](C)O)C(=O)N[C@@H](CO)C(=O)N[C@@H](CO)C(N)=O` [KWKSFLKTFKSAKKTALHTALKAISS], the MIC in [12] worked out at 0.685 µM (≈ 2.03 µg/mL); in assay [26] it was 1.37 µM (≈ 4.06 µg/mL); in [27], 0.342 µM (≈ 1.01 µg/mL); in assay [14] it was 1.37 µM (≈ 4.06 µg/mL); in [28], 1.37 µM (≈ 4.06 µg/mL).
With `CC(C)C[C@H](N)C(=O)NCC(=O)NCC(=O)N[C@@H](CC(=O)O)C(=O)N[C@@H](CC(N)=O)C(=O)N[C@@H](Cc1ccc(O)cc1)C(=O)NCC(=O)N[C@H](C(=O)N[C@@H](Cc1ccccc1)C(=O)N[C@@H](CO)C(=O)NCC(=O)N[C@@H](CO)C(=O)N[C@@H](CC(N)=O)C(=O)NCC(=O)N[C@@H](CC(N)=O)C(=O)N[C@@H](CC(N)=O)C(=O)N[C@@H](Cc1ccccc1)C(=O)N[C@@H](CCC(N)=O)C(=O)N[C@@H](Cc1cnc[nH]1)C(=O)NCC(=O)N[C@@H](CO)C(=O)N[C@@H](CC(N)=O)C(=O)O)[C@@H](C)O` [LGGDNYGTFSGSNGNNFQHGSN], the MIC is at least 44.6 µM in [29]; 1.39 µM (≈ 3.13 µg/mL) in assay [30]; 2.78 µM (≈ 6.25 µg/mL) in [31]; at least 44.6 µM in assay [32]; at least 44.6 µM in assay [33]; 22.3 µM (≈ 50 µg/mL) in assay [34].
As for `C[C@@H](O)[C@H](N)C(=O)N[C@@H](CCCCN)C(=O)N1CCC[C@H]1C(=O)N[C@@H](CCCCN)C(=O)NCC(=O)N[C@H](C(=O)N[C@@H](CCCCN)C(=O)N1CCC[C@H]1C(=O)N[C@@H](CCCCN)C(=O)NCC(=O)N[C@H](C(=O)N[C@@H](CCCCN)C(=O)N1CCC[C@H]1C(=O)N[C@@H](CCCCN)C(=O)NCC(=O)N[C@H](C(=O)N[C@@H](CCCCN)C(=O)N1CCC[C@H]1C(=O)N[C@@H](CCCCN)C(=O)NCC(N)=O)[C@@H](C)O)[C@@H](C)O)[C@@H](C)O` [TKPKGTKPKGTKPKGTKPKG], the MIC in [35] and in assay [36] was at least 300 µM throughout.
